Experiments:
[1] = Critical Micelle Concentration (micelle formation); format: physicochemical; conditions: 40° C.
From the text: The critical micelle concentration (CMC) is defined as the concentration at which a surfactant forms micelles in aqueous solution. […] A necessary and sufficient condition for CMC formation and surface tension reduction is the presence of both hydrophilic and hydrophobic functional groups. The hydrophilic portion provides strong interaction between the surfactant at the interface and with the surrounding water phase. The hydrophobic portion provides spontaneous adsorption of the surfactant at the interface and strong interaction with the adjacent air phase. If any of these functions are not performed, then CMC formation and surface tension reduction will not occur. For significant surface activity, a properly balanced hydrophilic and hydrophobic character is essential.

[2] = Surface Tension Reduction; format: physicochemical; conditions: 40° C.
From the text: An important characteristic feature that surfactants have is the tendency for them to absorb at the water/air interface in an oriented manner, thereby altering the interfacial free energy of that surface. The surface free energy per unit area or surface tension (γ), is a measure of this work and may be considered as the minimum amount of work required to bring sufficient surfactant molecules to the surface.

[3] = Viscosity Modification of Sodium Lauryl Sulfate prototype detergent compositions; format: physicochemical; conditions: for Appearance (viscosity) / Viscosity Increase: 15.0% sodium lauryl sulfate; for Viscosity Increase: 22° C.
Description: The prototype detergent compositions are as follows:
(§1) Detergent Compositions Comprising Sodium
(§2) Lauryl Sulfate and Glycacarbamate Compounds
N-Dodecyl D-Glucocarbamate
2.0-7.0% Foam Stabilizer/Thickener
2.0% Viscosity Cobuilder
(§3) Lauryl Sulfate and Glycaurea Compounds
(§4) The above formulations were prepared by admixing the above ingredients in listed order and heating the mixture to about 80° C. with rapid stirring. The mixture was then cooled to about 40° C., placed in a clear jar and stored at room temperature.
It is well known that the viscosity of a liquid composition comprision of anionic surfactant can be modified by the addition of inorganic salts, such as sodium chloride. However, in the absence of an organic modifier, high levels of salt may be necessary to achieve the required viscosity which may lead to problems of storage at cold temperature or even salting our certain ingrediets. In practice, however, the viscosity of a liquid compositionis modified by the simultaneous addition of thickener and small amounts of inorganic salt (viscosity cobuilder). The combined effect is greater than either one alone. The viscosity of the above prototype detergent compositions comprising various amounts of glycacarbamate/urea compound are as follows: […]

[4] = Clarity Enhancement of prototype detergent compositions; format: physicochemical; conditions: detergent formulation
Description: The formulations were placed in a clear jar and stored for 1 month. The prototype detergent compositions are as follows:
as §1, §2
N-Coconut D-Glucocarbamate
0.5-4.0% Foam Stabilizer/Thickener
as §3, §4
For a clear detergent formulation to be successful it must have good shelf life and should not become turbid or produce sedimentation upon standing.

[5] = Flow aids: water uptake and appearance of intimate admixtures; format: physicochemical; conditions: intimate admixtures with ODS, SCMOS, CP-5 or CP-7
From the text: It is known in the are that certain ingredients are hygroscopic in nature and liquify after exposure to moisture after a few days. […] Samples were removed periodically, weighed and returned to R. H. chamber. Percent water uptake was based on the amound of builder present. % H2 O Uptake=grams of water absorbed/grams of builder×100 Identical mixtures of ODS, SCMOS, CP-5 or CP-7 and methyl α-D-glucose-6-O-monolaurate (c12 Mgluc), dodecyl β-D-glucopyranoside (C12 Gluc), dodecyl β-D-maltoside (C12 Malt), D-glucose or D-sorbitol were also prepared and are used for comparison. When the comparative sugar surfactant of monosacchardie are used, percent water uptake was based on the amount of saccharide present. % H2 O Uptake=grams of water absorbed/grams of saccharide×100

[6] = Water Solubility and Krafft Point (0.1% solution in water, 40° C.); conditions: 40° C.
From the text: The temperature at which a surfactant forms micelles instead of precipitates is referred to as the Krafft point (Tk), and at or below this temperature the solubility of a surfactant becomes equal to its CMC (numerical value at which micelles are formed).

[7] = Viscosity Enhancement/Foam Stabilization (Brookfield Digital Viscometer)

CMC at 40° C. (micelle formation) [1]: Yes | Surface tension reduction (γ) at 40° C. [2]: Yes | Appearance (viscosity) ([3]; 2.0% thickener): Slightly Viscous | Viscosity Increase ([3]; 2.0% thickener): Yes | Appearance (viscosity) ([3]; 4.0% thickener): Viscous | Viscosity Increase ([3]; 4.0% thickener): Yes | Appearance (viscosity) ([3]; 7.0% thickener): Very Viscous | Viscosity Increase ([3]; 7.0% thickener): Yes | clarity (in words) [4]: clear without sedimentation | H2O Solubility at 40° C. [6]: Yes | Krafft point (Tk) [6]: Below Tk | Foam Stability ([7]; 4.0% thickener): Yes | viscosity increase from normal viscosity ([7]; 4.0% thickener): 99-104 times | Viscosity (Centipoise) ([7]; 4.0% thickener, 22° C.): 2176 Centipoise | Foam Stability ([7]; 4.0% thickener, listed as N-dodecyl D-glucocarbamate): stabilize foam
Compound: CCCCCCCCCCCCN1C[C@H](O)[C@H]([C@H](O)[C@H](O)CO)OC1=O [N-Dodecyl D-Glucocarbamate]
viscosity increase (in words) ([3]; compared with D-glucose): increases the viscosity of that composition more effectively than D-glucose | handling and flowing characteristics (in words) [5]: improved the handling and flowing characteristics | viscosity enhancement and foam stabilization (comparison in words) ([7]; compared with lauramide DEA, cocoamide MEA, Neodol 91-6 and D-glucose): enhance viscosity and stabilze foam compartively to lauramide diethanolamine (DEA), but better than cocoamide menoethanolamine (MEA), Neodol 91-6 (C9 -C11 alcohol ethoxylate with 6 moles of ethylene oxide) and D-glucose

Source: patent US5880076A, “Compositions comprising glycacarbamate and glycaurea compounds” (Lever Brothers Company, Division of Conopco, Inc., priority 1997, dated 1999)
